Measurements taken from PMC11413854, “Reversible Control of Native GluN2B-Containing NMDA Receptors with Visible Light” (ACS Chemical Neuroscience, 2024).
Several values for one entry are separate records, joined by “and”; a condition that tells them apart may be missing. Identical values can stand only once. Values belong to the compound of their own block, whether it stands above or below them.

Legend:
[1] = Photostationary state (cis/trans) composition in solution by HPLC, UV-vis or 1H NMR; type: physicochemical; settings: for % of trans in solution: Fig. 5J; for % of cis in solution: Figure 5E
From the text: To characterize the photochemical properties of OptoNAM-3, we focused on the three key properties allowing the use of azobenzenes in biological systems: (i) wavelengths for trans-to-cis and cis-to-trans conversions; (ii) compound thermalstability, i.e., half-life of the cis isomer in the dark; and (iii) fatigability, i.e., the number of illumination cycles that the molecule can undergo without degradation. To this aim, we acquired UV–visible absorption spectra of OptoNAM-3 diluted in Xenopus oocyte recording solution (Ringer pH 7.3; see Methods) either in the dark (absence of illumination) or after illumination by light wavelengths ranging from 350 to 580 nm (Figures 2B and S1M). In the dark (black curve in Figure 2B), the spectrum was characteristic of a trans isomer.[32] Application of UV light at a wavelength close to the main absorption peak of the trans form (365 or 350 nm) gave a completely different spectrum (violet curves in Figure 2B), characteristic of azobenzenes in their cis configuration.[32] HPLC analysis of OptoNAM-3 in solution identified photostationary states (PSS) containing 100% trans in the dark, 82% cis and 18% residual trans after illumination at 365 nm (365 nm PSS, violet curve in Figure 2C), and 91% cis and 9% residual trans after illumination at 350 nm (350 nm PSS, lavender curve in Figure 2C). […] Irradiation of OptoNAM-3 365 nm PSS with wavelengths from 435 to 550 nm gave equivalent cis-to-trans conversions with 435 and 550 nm yielding slightly stronger conversions (∼70% trans after illumination at 435 and 550 nm calculated from UV–visible spectra at λtrans = 329 nm, Figures 2B and S1N; 550 nm PSS of 69% trans and 31% cis measured by HPLC, Figure 2C, green trace). 550 nm was chosen as the optimal wavelength since green light is less harmful for cells than lights of shorter wavelengths. We then tested the thermal stability of the cis form in the dark (in the absence of illumination). […] This very high stability is interesting because it avoids the prolonged use of light to maintain OptoNAM-3 in the desired configuration. OptoNAM-3 could finally endure many illumination cycles without degradation (Figure 2E).
UV–vis absorbance spectra were measured from in 1 cm long quartz cuvettes on a NanoPhotometer NP80 spectrometer (Implen, Germany). We used solutions of 10, 50, or 100 μM OptoNAMs diluted in Ringer at pH 7.3 (for TEVC extracellular recording solution, see below) from the 50 mM stock solution in DMSO. Photostationary states of OptoNAMs in Ringer for different illumination wavelengths were obtained by continuous illumination with multiwavelength LEDs (pE-2 and pE-4000, CoolLED, UK [power ∼75 mW]) or photochemical reactor RPR-100 Rayonet US (power ∼2 mW) for 350 nm, until no further change in the absorption spectra could be observed. For all irradiation wavelengths tested, 10 min illumination was sufficient to reach the steady state.
The cis–trans compositions of OptoNAM-3 in the dark and after illumination by 365, 350, and 550 nm were determined by HPLC using the relative integrated areas of the cis and trans peaks at the isosbestic point at 280 nm, […], considering that the sum of integrated area for two peaks is 100%. We checked that ratios measured at the isosbestic point at 390 nm were similar. Analytical HPLC was performed on an Agilent 1200 series equipped with a quaternary pump using a Nucleodur C18 HTech column from Macherey-Nagel Inc. (particle size 3 μm, 150 × 4.6 mm column). The compounds were eluted with a flow of 1 mL/min using a gradient of acetonitrile (0–100% over 15 min) in water, with both solvents containing 0.1% TFA. Detection was performed at 220, 280, and 390 nm.
The dark and 365 nm PSS were furthermore characterized by ^1H NMR spectroscopy with the OptoNAMs diluted in DMSO-d6 and the relative abundance of trans and cis isomers quantified using ^1H NMR spectra. […]

[2] = Thermal stability of the PSS in the dark and fatigability over illumination cycles; type: physicochemical; settings: for A(320 nm): Sup. Fig. 1C; for A(371 nm): Sup. Fig. 1G; for A(334 nm): Sup. Fig. 1K
From the text: , we focused on the three key properties allowing the use of azobenzenes in biological systems: (i) wavelengths for trans-to-cis and cis-to-trans conversions; (ii) compound thermalstability, i.e., half-life of the cis isomer in the dark; and (iii) fatigability, i.e., the number of illumination cycles that the molecule can undergo without degradation. To this aim, […] recording solution (Ringer pH 7.3; see Methods) either in the dark (absence of illumination) or after illumination by light wavelengths ranging from 350 to 580 nm (Figures 2B and S1M). In the dark (black curve in Figure 2B), the spectrum was characteristic of a trans isomer.[32] Application of UV light at a wavelength close to the main absorption peak of the trans form (365 or 350 nm) gave a completely different spectrum (violet curves in Figure 2B), characteristic of azobenzenes in their cis configuration.[32] […] states (PSS) containing 100% trans in the dark, 82% cis and 18% residual trans after illumination at 365 nm (365 nm PSS, violet curve in Figure 2C), and 91% cis and 9% residual trans after illumination at 350 nm (350 nm PSS, lavender curve in Figure 2C). […] from 435 to 550 nm gave equivalent cis-to-trans conversions with 435 and 550 nm yielding slightly stronger conversions (∼70% trans after illumination at 435 and 550 nm calculated from UV–visible spectra at λtrans = 329 nm, Figures 2B and S1N; 550 nm PSS of 69% trans and 31% cis measured by HPLC, Figure 2C, green trace). 550 nm was chosen as the optimal wavelength since green light is less harmful for cells than lights of shorter wavelengths. We then tested the thermal stability of the cis form in the dark (in the absence of illumination). […]
Thermal stability of the cis state (365 nm PSS) was measured by irradiating the solution with 365 nm light during 10 min, then letting it relax in the dark, at room temperature (20–22 °C), inside the spectrophotometer. Spectra were acquired at regular intervals, up to 1 day, after irradiation.

[3] = physiological buffer, UV-visible, measured at λtrans
[4] = Ringer pH 7.3, room temperature
[5] = HPLC, physiological aqueous buffer
[6] = in solution, UV-visible spectra
[7] = in solution, calculated from UV-visible spectra at 329 nm

- trans after 440 nm irradiation of the 365 nm PSS [1, 3]: ~ 75%
- thermal stability of the 365 nm PSS (mostly cis) in the dark: time without change of spectra [2, 4]: ≥ 60 min
- A(320 nm) ([2]; 365 nm (t=0)): 0.092
- A(320 nm) ([2]; 365 nm (t=2 min)): 0.093
- A(320 nm) ([2]; 365 nm (t=5min)): 0.093
- A(320 nm) ([2]; 365 nm (t=10 min)): 0.093
- A(320 nm) ([2]; 365 nm (t=20min)): 0.093
- A(320 nm) ([2]; 365 nm (t=40min)): 0.094
- A(320 nm) ([2]; 365 nm (t=60min)): 0.094
- A(320 nm) ([2]; dark): 0.207
Structure (SMILES): Nc1ccnc(/N=N/c2ccccc2)c1 [OptoNAM-1, (E)-2-(phenyldiazenyl)pyridin-4-amine]

- 365 nm PSS, cis, in DMSO ([1]; DMSO, 1H NMR): 90%
- % of trans in solution ([1]; 365 nm): 18.030%
- % of trans in solution ([1]; 385 nm): 53.274%
- % of trans in solution ([1]; 435 nm): 71.738%
- % of trans in solution ([1]; 460 nm): 68.781%
- % of trans in solution ([1]; 490 nm): 68.847%
- % of trans in solution ([1]; 525 nm): 62.601%
- % of trans in solution ([1]; 550 nm): 70.739%
- % of trans in solution ([1]; 580 nm): 68.208%
- % of cis in solution ([1]; 365 nm): 82.000%
- % of cis in solution ([1]; 385 nm): 48.439%
- % of cis in solution ([1]; 435 nm): 30.261%
- % of cis in solution ([1]; 460 nm): 30.902%
- % of cis in solution ([1]; 490 nm): 32.185%
- % of cis in solution ([1]; 525 nm): 29.192%
- % of cis in solution ([1]; 550 nm): 27.267%
- % of cis in solution ([1]; 580 nm): 25.128%
- 550 nm PSS, cis ([1]; HPLC): 31%
- 550 nm PSS, trans ([1]; HPLC): 69%
- PSS in the dark, trans ([1]; HPLC, aqueous solution): 100%
- 350 nm PSS, cis [1, 5]: 91%
- 350 nm PSS, residual trans [1, 5]: 9%
- 365 nm PSS, residual trans [1, 5]: 18%
- 365 nm PSS, cis ([1]; HPLC, physiological aqueous buffer (free OptoNAM-3)): 82%
- cis after 460 nm illumination of the dark PSS [1, 6]: ~31%
- cis after 550 and 580 nm illumination of the dark PSS [1, 6]: ~30%
- trans after 460 nm illumination of the 365 nm PSS [1, 6]: 69%
- trans after 435 nm illumination of the 365 nm PSS [1, 7]: ~70% and 72%
- trans after 550 nm illumination of the 365 nm PSS [1, 7]: ~70%
- thermal stability of the 550 nm PSS in the dark: time without change of spectrum [2, 4]: ≥ 24 h
- cycles of UV/green illumination without degradation ([2]; absorbance at 329 nm): ≥ 10 cycles
Structure (SMILES): c1ccc(/N=N/c2ccc(CCNc3ccncc3)cc2)cc1 [OptoNAM-3, (E)-N-(4-(Phenyldiazenyl)phenethyl)pyridin-4-amine]

- trans after 490 nm irradiation of the 365 nm PSS [1, 3]: ~ 52%
- thermal stability of the 365 nm PSS (mostly cis) in the dark: time without change of spectra [2, 4]: ≥ 60 min
- A(371 nm) ([2]; 365 nm (t=0)): 0.257
- A(371 nm) ([2]; 365 nm (t=1 min)): 0.255
- A(371 nm) ([2]; 365 nm (t=5min)): 0.256
- A(371 nm) ([2]; 365 nm (t=10 min)): 0.255
- A(371 nm) ([2]; 365 nm (t=20 min)): 0.257
- A(371 nm) ([2]; 365 nm (t=40min)): 0.258
- A(371 nm) ([2]; 365 nm (t=60min)): 0.260
Structure (SMILES): Cc1cc(N)nc(/N=N/c2ccccc2)c1 [OptoNAM-2, (E)-4-methyl-6-(phenyldiazenyl)pyridin-2-amine]

- trans after 440 nm irradiation of the 365 nm PSS [1, 3]: 100%
- thermal stability of the 365 nm PSS (mostly cis) in the dark: time without change of spectra [2, 4]: only little change
- A(334 nm) ([2]; 365 nm (t=0)): 0.207
- A(334 nm) ([2]; 365 nm (t=5 min)): 0.200
- A(334 nm) ([2]; 365 nm (t=15 min)): 0.206
- A(334 nm) ([2]; 365 nm (t=30min)): 0.211
- A(334 nm) ([2]; 365 nm (t=40 min)): 0.208
- A(334 nm) ([2]; 365 nm (t=60min)): 0.242
Structure (SMILES): CS(=O)(=O)Nc1ccc2nc(Cc3ccc(/N=N/c4ccccc4)cc3)[nH]c2c1 [OptoNAM-4, (E)-N-(2-(4-(phenyldiazenyl)benzyl)-1H-benzo[d]imidazol-6-yl)methanesulfonamide]
